Reference: patent US12343396B2, “Ultrasound mediated delivery of drugs” (EXACT THERAPEUTICS AS, priority 2013, dated 2025)
≈ marks a conversion by molar mass, not a printed value. Like-named read-outs stand apart in the source and are kept apart here.

Assays:
[1] = cited from earlier work; for vapour pressure (v.p.): at 20° C.; for Log wsol (water solubility): logarithm of Molar solubility
[2] = Microscopy scoring of spontaneously and US activated bubbles; assay type: physicochemical; parameters: key: Score 0 = no or very limited; Score 1 = medium and; Score 2 = high; details: oil as C2 microdroplet phase mixed with C1, 37° C.; for Spont. Act. (amount of spontaneously activated bubbles): bubbles >~15 μm; for US Act. (amount of US activated bubbles): insonated 5 s, nominal MI 0.8, 2.25 MHz
Method: 641 mg distearoylphosphateidylcholine (DSPC) and 73 mg 1,2-distearoyl-3-(trimethylammonio) propane chloride (DSTAP) were weighed into a 250 mL round bottom flask and 50 ml chloroform was added. The sample was heated under hot tap water until a clear solution was obtained. The chloroform was removed by evaporation to dryness on a rotary evaporator at 350 mm Hg and 40° C., followed by further drying at 50 mm Hg in desiccator over night. Thereafter, 143 mL water was added and the flask again placed on a rotary evaporator and the lipids were rehydrated by full rotational speed and 80° C. water bath temperature for 25 minutes. The samples were placed in refrigerator over night. The lipid dispersion was transferred to a suitable vial and stored in refrigerator until use.
Emulsions were prepared by transferring aliquots of 1 mL of the cold lipid dispersion to 2 mL chromatography vials. To each of seven vials was added 100 μL of the fluorocarbon oils as detailed in Table 11. The chromatography vials were shaken on a CapMix (Espe, GmbH) for 75 seconds. The vials were immediately cooled in ice, pooled and kept cold until use. Coulter counter analysis was performed to determine the volume concentration of the microdroplets and the emulsions were then diluted with water to 10 μl/mL disperse phase.
C1 (as detailed in E1-2) was reconstituted in 2 mL of water and mixed together with the C2 samples prepared in a 10 ml tube to a ratio of 10:1 and shaken carefully by hand. The mixture was then diluted with 7 mL water. The samples were evaluated for spontaneously activated and US activated bubbles by microscopy in manual version of the methodology described in E1-4. One mL of this solution was transferred to a microscope cell where the temperature was stabilised to 37° C. after 2 minutes. The cell was set up so that US sonication, using an ATL 3-2 transducer with a center frequency of 2.25 MHZ, could be applied to the sample. At 200× magnification the entire cell area was scanned and the content of large (>˜15 μm), spontaneously activated bubbles was semi quantitatively assessed by visual inspection. For each sample, a score in the range of 0 to 2 was given, where 0 designate “no or very few large phase shift bubbles observed”, 1 designate “medium number of large phase shift bubbles observed” and 2 designate “large number of large phase shift bubbles observed”. The sample was then insonated for 5 s at a nominal MI of 0.8 and the content of large, US activated bubbles were counted and scored in the same manner. The results from this study is detailed in Table 11 together with the physicochemical characteristics of the compounds investigated.

[3] = physchem; details: for solubility: organic solvent or mixture; for Miscibility in tCIMe: solvents
Method: As a starting-point for the study on drug loading, a theoretical evaluation of solubility of different solutes (drugs and chromophores for optical imaging) in pFMCP and a range of other oil components was performed. This evaluation was performed using a state-of-the-art software for assessment of solvent-solute compatibility; Hansen solubility parameters, HSPiP v.4 (Steven Abbott TCNF Ltd.). The HSPIP analysis calculates three basic properties relating to compatibility between substances; Polarity, Dispersion and Hydrogen binding and a distance in this three dimensional space between e.g. a solvent and a solute; the Hansen distance (Hd). The closer the solvent and solute are in this space, the (relatively) better the solubility of the solute in the solvent. […] The miscibility between the solvent and the solubility of the solutes in one of the solvents were experimentally determined.
In addition, a 1:1:2 mixture of said three solvents loaded with Ptx was explored. […] C2 with a 1:1:1 mixture of these components was manufactured as detailed below.

Row | Compound | vapour pressure (v.p.) [1] | Log wsol (water solubility) [1] | Spont. Act. (amount of spontaneously activated bubbles) [2] | US Act. (amount of US activated bubbles) [2] | also measured
1 | 1,1,2,3,3,3-Hexafluoropropyl methyl | 418.8 torr | −2.5 | 2 | 0 | 
2 | 2,2,3,3,3-Pentafluoropropyl methyl | 559.6 torr | −2.0 | 1 | 0 | 
3 | C=CC(F)(F)C(F)(F)C(F)(F)C(F)(F)F [1H, 1H,2H-perfluoro-1-hexene] | 353.1 torr | −4.6 | 1 | 1 | 
4 | FC(F)C(F)(F)C(F)(F)C(F)(F)C(F)(F)C(F)(F)F [1H-perfluorohexane] | 238.6 torr | −5.3 | 1 | 1 | 
5 | FC(C(F)C(F)(F)C(F)(F)F)C(F)(F)F (stereo not shown) [2H,3H-perfluoropentane] | 431.8 torr | −3.2 | 1 | 0 | 
6 | CN(C)C/C=C/C(=O)Nc1cc2c(Nc3ccc(F)c(Cl)c3)ncnc2cc1O[C@H]1CCOC1 [Afatinib] |  |  |  |  | solubility ([3]; Solubility in tCIMe): ~100 mg/mL (≈ 206 mM)
7 | CCCCCCCCCCCCCCCCCCN1C(=CC=CC=CC=CC2=[N+](CCCCCCCCCCCCCCCCCC)c3ccccc3C2(C)C)C(C)(C)c2ccccc21.[I-] [DiR] |  |  |  |  | solubility in solvent mixture ([3]; 1:1:1 mixture of pFMCP, ClrFPr and pFMCP): > 10 mg/mL; Solubility in tCIMe ([3]; target molecules): ~50 mg/mL
8 | CC(=O)O[C@@]12CO[C@@H]1C[C@H](O)[C@@]1(C)C(=O)[C@H](O)C3=C(C)[C@@H](OC(=O)[C@H](O)[C@@H](NC(=O)OC(C)(C)C)c4ccccc4)C[C@@](O)([C@@H](OC(=O)c4ccccc4)[C@H]21)C3(C)C [Docetaxel] |  |  |  |  | solubility ([3]; Solubility in tCIMe): ~20 mg/mL (≈ 24.8 mM)
9 | COc1cccc2c1C(=O)c1c(O)c3c(c(O)c1C2=O)C[C@@](O)(C(=O)CO)C[C@@H]3O[C@H]1C[C@H](N)[C@H](O)[C@H](C)O1 [Doxorubicin] |  |  |  |  | solubility ([3]; trichloromethane (tClMe), Solubility in tCIMe, target molecules): ~1 mg/mL (≈ 1.84 mM)
10 | CCS(=O)(=O)Nc1ccc2c(c1)/C(=C(/Nc1ccc(CN3CCCCC3)cc1)c1ccccc1)C(=O)N2 [Hesperadin] |  |  |  |  | solubility ([3]; Solubility in tCIMe): ~7.5 mg/mL (≈ 14.5 mM)
11 | CCN(CC)c1ccc2nc3c4ccccc4c(=O)cc-3oc2c1 [Nile Red] |  |  |  |  | solubility ([3]; Solubility in tCIMe): ~50 mg/mL (≈ 157 mM); solubility ([3]; solubility in solvent mixture): > 5 mg/mL
12 | CC(=O)O[C@H]1C(=O)[C@@]2(C)[C@H]([C@H](OC(=O)c3ccccc3)[C@]3(O)C[C@H](OC(=O)[C@H](O)[C@@H](NC(=O)c4ccccc4)c4ccccc4)C(C)=C1C3(C)C)[C@]1(OC(C)=O)CO[C@@H]1C[C@@H]2O [Paclitaxel] |  |  |  |  | solubility in solvent mixture [3]: > 50 mg/mL; solubility ([3]; Solubility in tCIMe): ~350 mg/mL (≈ 410 mM); solubility ([3]; solubility in solvent mixture): > 25 mg/mL
13 | FC(F)(F)C(F)(F)C(F)(F)C(F)(F)C(F)(F)C(F)(F)C(F)(F)F [Perfluoroheptane] |  |  | 0 | 2 | 
14 | FC(F)(F)C(F)(F)C(F)(F)C(F)(F)C(F)(F)C(F)(F)F [Perfluorohexane] | 359.2 torr | −6.7 | 0 | 1 | 
15 | ClCCl [dCIMe, dichloromethane] |  |  |  |  | miscibility in pFMCP [3]: ~10%; Miscibility in tCIMe [3]: 100%; Log wsol (water solubility) ([1]; solvents): −0.8
16 | FC(F)(F)C1(F)C(F)(F)C(F)(F)C(F)(F)C1(F)F [pFMCP, perfluoromethyl-cyclopentane] |  |  | 0 | 1 | Miscibility in tCIMe [3]: ~10%
17 | Methyl-1,1,2,2-tetrafluoroethyl ether | 842.4 torr | −1.4 | 2 | 0 | 
18 | Perfluorodimethylcyclobutane | 579 torr | −5.7 | 0 | 1 | 
19 | chlorotrifluoropropane [CltFPr] |  |  |  |  | miscibility in pFMCP, dClMe and tClMe [3]: completely miscible; Miscibility in tCIMe [3]: 100%; Log wsol (water solubility) ([1]; solvents): −2.4
20 | dichlorodifluoroethane [dCldFEt] |  |  |  |  | miscibility in pFMCP, dClMe and tClMe [3]: completely miscible
